In article PMC11873639 (Acta Pharmaceutica Sinica. B, 2024):
Values belong to the compound of their own block, whether it stands above or below them.

Tests used:
[1] = tested on: LAD2 cells; assay: β-hexosaminidase release induced by C48/80 in LAD2 cells; type: cell-based, Human; settings: for IC50: Homo sapiens, LAD2, read-out: Experimental pIC50 (converted); for antiallergic activity (β-hexosaminidase release inhibition): LAD2 cells, 10 μmol/L
[2] = tested on: LAD2 cells; assay: LAD2 cell viability; type: cell-based, Human; settings: 10 μmol/L
[3] = tested on: LAD2 cells; assay: histamine release in vitro induced by C48/80; type: cell-based, Human; settings: 1 to 10 μmol/L
[4] = tested on: LAD2 cells; assay: IL-8 release induced by C48/80; type: cell-based, Human; settings: LAD2 cells, 1, 5 and 10 μmol/L
[5] = tested on: mice; assay: paw swell and Evans blue extravasation induced by C48/80; type: in vivo; settings: gavage, 1, 5 and 10 mg/kg
[6] = tested on: mice; assay: serum histamine release in vivo after C48/80; settings: mice, 1, 5 and 10 mg/kg
[7] = tested on: mice; assay: skin toluidine blue staining; type: in vivo; settings: 10 mg/kg, C48/80
[8] = tested on: mice; assay: body temperature after C48/80; type: in vivo; settings: 10 mg/kg
[9] = tested on: C57BL/6 mice; assay: OVA-induced antigen-induced pulmonary inflammation; type: in vivo; settings: AIPI mice
[10] = tested on: MRGPRX2-HEK293 cells; assay: intracellular Ca2+ mobilization assay; type: cell-based; settings: MRGPRX2-HEK293 cells, 1, 5, 10 μmol/L
[11] = target: T1, MRGPRX2 (Homo sapiens, UniProt Q96LB1); settings: cited from earlier work
T1 sequence (Q96LB1 1-330): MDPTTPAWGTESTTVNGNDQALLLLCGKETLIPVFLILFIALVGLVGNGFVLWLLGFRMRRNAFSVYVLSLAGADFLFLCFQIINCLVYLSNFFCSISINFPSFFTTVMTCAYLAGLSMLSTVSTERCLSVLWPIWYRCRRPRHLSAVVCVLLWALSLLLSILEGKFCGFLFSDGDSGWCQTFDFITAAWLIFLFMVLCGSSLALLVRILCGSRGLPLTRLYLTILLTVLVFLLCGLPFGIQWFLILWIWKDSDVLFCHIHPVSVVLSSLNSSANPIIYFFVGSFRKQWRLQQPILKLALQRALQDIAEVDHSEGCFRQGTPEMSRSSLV

SMILES: O=C(Nc1ccccc1)Nc1cc(Br)cc(C(F)(F)F)c1 [Compound A-1023, 1-(3-bromo-5-(trifluoromethyl)phenyl)-3-phenylurea]
- IC50 [1]: 7.94 µM

SMILES: O=C(Nc1ccccc1)Nc1cccc(C(F)(F)F)c1 [Compound A-4023]
- cytotoxicity on LAD2 cells [2]: attenuated cytotoxicity

SMILES: O=C(Nc1ccc(C(F)(F)F)cc1)Nc1ccc(S(=O)(=O)O)cc1 [Compound B-6023]
- antiallergic activity (β-hexosaminidase release inhibition) ([1]; C48/80): inactivity

SMILES: C[C@@H]1C[C@H]2[C@@H]3CCC4=CC(=O)C=C[C@]4(C)[C@@]3(F)[C@@H](O)C[C@]2(C)[C@@]1(O)C(=O)CO [Dexamethasone, reference compound]
- airway hyperresponsiveness (AHR) triggered by Mch [9]: suppressed the AHR
- lung lesions (HE, PAS, MASSON staining) ([9]; dose not given): improved lung lesions
- serum IgE release ([9]; dose not given): almost completely inhibited the excessive release of IgE

SMILES: CC(C)=CCOc1c2occc2cc2ccc(=O)oc12 [imperatorin]
- IC50 [11]: 50 µM

SMILES: C[C@H]1O[C@@H](O[C@H]2CC[C@@]3(C)[C@@H](CC[C@]4(C)[C@@H]3C=C[C@]35OC[C@@]6(CCC(C)(C)C[C@H]63)[C@@H](O)C[C@]54C)[C@]2(C)CO)[C@H](O)[C@@H](O[C@@H]2O[C@H](CO)[C@@H](O)[C@H](O)[C@H]2O)[C@H]1O [saikosaponin A]
- IC50 [11]: 640 µM

Second part, led by results:

- IC50 [1]: 1.23 µM
SMILES: O=C(Nc1ccc(C(F)(F)F)cc1)Nc1cccc(Br)c1 [Compound A-2023, 1-(3-bromophenyl)-3-(4-(trifluoromethyl)phenyl) urea]
- cytotoxicity on LAD2 cells [2]: much higher toxicity

- IC50 [1]: 8.32 µM
SMILES: O=C(Nc1ccccc1)Nc1ccc(C(F)(F)F)cc1 [Compound A-3023]
- antiallergic activity (β-hexosaminidase release inhibition) ([1]; C48/80): much more potent than A-4023
- cytotoxicity on LAD2 cells [2]: attenuated cytotoxicity

- IC50 [1]: 21.9 µM
SMILES: O=C(Nc1ccccc1)Nc1cccc(Br)c1 [Compound A-5023]
- antiallergic activity (β-hexosaminidase release inhibition) ([1]; C48/80): no antiallergic activity
- cytotoxicity on LAD2 cells [2]: no antiallergic activity or cytotoxicity

- IC50 [1]: 0.17 µM
SMILES: O=C(Nc1ccc([N+](=O)[O-])cc1)Nc1ccc(C(F)(F)F)cc1 [Compound B-1023]
- inhibition of β-hexosaminidase release ([1]; LAD2 cells, 1, 5 and 10 μmol/L, C48/80): the most potential antiallergic ability
- cytotoxicity on LAD2 cells [2]: nontoxic
- histamine release from LAD2 cells induced by C48/80 [3]: inhibited the histamine release
- IL-8 release induced by C48/80 [4]: reduced the IL-8 release
- hindpaw swelling and Evans blue exudation rates [5]: decreased in a dose-dependent manner
- serum histamine release [6]: reduced in a dose-dependent manner
- local skin mast cell deformation and degranulation (toluidine blue) [7]: reduced mast cell deformation and degranulation
- body temperature drop induced by C48/80 [8]: significantly attenuated the body temperature drop
- Th2 cytokine (IL-5 and IL-13) release in BALF [9]: obviously inhibited
- airway hyperresponsiveness (AHR) triggered by Mch [9]: suppressed the AHR
- number of bronchoalveolar lavage fluid (BALF) cells [9]: inhibited
- lung lesions (HE, PAS, MASSON staining) ([9]; 5 mg/kg oral): exerted anti-AIPI effects
- lung lesions (HE, PAS, MASSON staining) ([9]; 10 mg/kg oral): significantly attenuated the pathological changes, with a better effect than that of Dex
- serum IgE release ([9]; 10 mg/kg oral): only partially weakened IgE release
- C48/80-induced intracellular calcium mobilization [10]: dose-dependently reduced

- IC50 [1]: 0.363 µM
SMILES: O=C(Nc1ccc(C(F)(F)F)cc1)Nc1cccc([N+](=O)[O-])c1 [Compound B-2023]

- IC50 [1]: 0.832 µM
SMILES: O=C(Nc1ccc([N+](=O)[O-])cc1)Nc1cccc(C(F)(F)F)c1 [Compound B-3023]

- IC50 [1]: 0.288 µM
SMILES: O=C(Nc1cccc([N+](=O)[O-])c1)Nc1cccc(C(F)(F)F)c1 [Compound B-4023]
